# Laboratory results taken from patent publication US20050214217A1 (priority 2004, published 2005).
# Entries after “also recorded” stand apart in the source; their conditions may differ.
# What was measured:
# [1] = system: normal human T-cells; experiment: T-cell adhesion assay to fibronectin and laminin; assay type: cell-based; conditions: for Blocking of the glutamate effect on integrin-mediated T-cell adhesion to laminin and fibronectin: Glutamate 10 nM
# Protocol: Adhesion of untreated cells (BG) serves as a control. The results are expressed as the OD405 of the lysed, fibronectin- or laminin-adherent cells remaining after incubation and repeated washings.
# Adhesion of T-cells to fibronectin and laminin was assayed as follows: normal human T-cells, purified from a fresh blood sample, were suspended (1×10^6 cells/ml) in rest medium (RPMI-1640, supplemented with 10% fetal calf serum (Sigma Chemical Co., St. Louis, Mo.), 1% antibiotics, 1% glutamine (Biological Industries, Beit Haemek, Israel) and 0.4% fungizone (GibcoBRL, Life Technologies Ltd., Paisley, Scotland)). […] Following incubation the cells were washed and resuspended in adhesion medium (RPMI-1640 supplemented with 0.1% bovine serum albumin (BSA, Sigma)). The cells were then seeded in 96 well flat-bottomed microtiter plates (Falcon, Becton Dickinson, Heidelberg, Germany, 1×10^5 cells/100 μl/well pre-coated with fibronectin or laminin (ICN Biomedicals Inc., Aurora, Ohio, […], 18 hours, 4° C.). Cells treated with phorbol 12-myristate 13-acetate (PMA, Sigma, 10 ng/ml) served as a positive control. The adhesion plates were incubated (37° C., 30 minutes, 7.5% CO2 humidified incubator), and then washed several times with PBS to remove non-adherent T-cells. The adhered cells were lysed by adding 60 μl/well of lysis-substrate solution (0.5% Triton X-100 in water mixed with an equal volume of 7.5 mM p-nitrophenol-N-acetyl-β-D-glucosaminide (Sigma, St. Louis, Mo.) in 0.1M citrate buffer pH=5.0). The plates were then incubated for 18 h in a CO2-devoid 37° C. incubator, and the reaction was stopped by the addition of […] of 50 mM glycine (Sigma, St Louis, Mo.) pH=10.4, containing 5 mM EDTA. The optical density (OD) was measured at 405 nm in a standard ELISA reader. The OD was converted to actual number of cells using a standard curve performed in each experiment.
# [2] = system: Bomapin mRNA in peripheral human T-cells; experiment: Bomapin expression by quantitative RT-PCR in peripheral human T-cells; assay type: cell-based
# Protocol: PCR was performed for 30 cycles. The ethidium bromide bands corresponding to the amplified bomapin transcripts were quantified by AlphaEase program (Alpha Innotech, San Leandro, Calif., USA). Each PCR tube contained four oligonucleotides primers, two for the Bomapin and two for the internal control (S-14).
# Neurotransmitters, agonists and antagonists were added and the cells were incubated at 37 C°, 5% CO2 for up to 72 hours, as indicated for individual experiments. The incubated T-cells were then collected and used for further experimentation.
# Total RNA was extracted by using Trizol RNA isolation reagent (Molecular Research Center, Cincinnati, Ohio) based on the acid guanidinium thiocyanate-phenol-chloroform extraction method, according to manufacturer recommendations. RT-PCR was used to amplify the levels of endogenous Bomapin mRNA that may be present in the peripheral human T-cells and in the Jurkat cells (a human mature leukemic cell line that phenotypically resembles resting human T lymphocytes). The expression of the ribosomal protein S-14, derived from the same tissue preparations, served as an internal control. Each reaction contained four oligonucleotides primers, two for Bomapin and two for the internal control S-14. PCR conditions were: cDNA equivalent to 50 ng RNA was amplified for 30 cycles, the annealing temperature was 60° C. and the final MgCl2 concentration was 2.5 mM. […]
# [3] = system: cloned resting human Th1 cells (clone 305); experiment: Cytokine secretion by ELISA, resting cloned Th1 cells; assay type: cell-based; conditions: 10^−8 M Glutamate, versus untreated
# Protocol: The results are expressed as pg/ml IL-10.
# The results are expressed as pg/ml IL-4.
# (§1) Human T-cell clones were prepared essentially as described by Besser M and Wank J (Besser M and Wank J, J Immunol 1999; 162:6303-306): Human PBMC were purified from whole blood by Ficoll gradient (Amersham Pharmacia Biotech, Freiburg, Germany). CD4^+ Th (T-helper) cells were isolated by using CD4 mAbs coupled to magnetic beads (Dynal, Hamburg, Germany). T cells were cultured at 1-2×10^6 cells/ml either in the presence of 1% PHA (Difco, Hamburg, Germany), 20 μg of anti-CD3 (OKT-3, Cilag, Sulzbach, Germany)-precoated plates in combination with IL-2 (20 U/ml) or IL-4 (100 U/ml), or with 100 ng/ml neurotrophins (Prepro, London, England), 20 U/ml IL-2 (Chiron, Ratingen, Germany), 100 U/ml IL-4 (Genzyme, Ruesselsheim, Germany) or 500 U/ml IFN-γ (Thomae, Bicherach an der Riss, Germany) alone. RPMI 1640 culture medium (Life Technologies, Eggenstein, Germany) was supplemented with 10% FCS (Life Technologies). Alloprimed PBMC were seeded at 0.4 cell/well on allogeneic specific feeder layer. […] Constitutive expression in immune cell bulk cultures was assessed immediately after cell separation, in cloned T lymphocytes after 3 days without further addition of IL-2.
# (§2) Cytokine levels were measured in supernatants from Glutamate stimulated human T-cell cultured as described hereinabove. […]
# [4] = system: human peripheral lymphocytes; conditions: cited from earlier work
# [5] = system: normal human T-cells; experiment: In-vitro chemotactic migration assay towards SDF-1; assay type: cell-based; conditions: pre-treatment 66 hours, Glutamate 10^−8, fibronectin-coated filters
# Protocol: FIG. 8 illustrates the Glutamate-induced migration of normal human T-cells towards the chemokine SDF-1. […] The cells in each experimental group were counted by FACSORT. The results are expressed as the number of fluorescently-labeled migrating Glutamate-treated T-cells vs. untreated controls (Untreated).
# The cells were then washed, resuspended in adhesion medium, and added to the upper chambers (2×10^5 cells per 100 μl well) of a 24-well chemotaxis microchamber plate (Corning Inc., Corning, N.Y.). The two compartments of the microchambers were separated by polycarbonate filters ([…]) pre-coated with fibronectin or laminin ([…], about 1.5 hour, 37° C.). The lower chambers contained adhesion medium, which was supplemented, where indicated, with 100-250 ng/ml of the chemokine stromal cell-derived factor 1a (SDF-1a, Peprotech Inc., Rocky Hill, N.J.). The chemotaxis microchamber plate was incubated (3 hours, 37° C., 7.5% CO2 humidified incubator), the filter-containing upper chambers were gently removed and the contents of the individual lower chambers (containing the migrated cells) thoroughly mixed by pipetting and transferred into clean tubes. The number of cells in each tube was determined by FACSORT. Counting time for all the experimental groups was two minutes. […]
# [6] = system: resting human peripheral T-cells; experiment: Gene expression analysis with Atlas human cDNA expression array; assay type: cell-based; conditions: Glutamate 10 nM, 72 hours, autoradiography and densitometry
# Description: FIGS. 1A-1D are tables illustrating the Glutamate-induced regulation of specific gene expression in the human T-cell, through analysis of gene expression using the atlas human cDNA expression array. […] The cDNA was hybridized to the atlas membranes according to the manual, and expression was visualized by autoradiography. […] Note the enhanced expression of T-cell genes such as Rapamycin-selective-25 KD Immunophilin (FKBP-25), Heat shock protein 40 (Hsp 40), Cathepsin E presursor, Carbonic anhydrase-related protein (carp) (ca-viii), peptidyl-glycine alpha-amidating monooxygenase presursor (pam), and axonemal dynein heavy chain (fragment) as well as of genes whose expression has been previously undetected in T cells such as Stimulator of Fe Transport (SFT), oviductal glycoprotein, Clathrin light chain, Protein Inhibitor of Activated STAT (PIAS) and Cartilage Intermediate Layer Protein (CILP) (FIG. 1A).
# Hybridizations to the Atlas Human cDNA Expression Arrays membranes (Catalog No. 1.2 KIII (7850-1) and III (7855-1), Clontech Laboratories) were performed by Clonetech Laboratories, as described in the user manual. Analysis of the expression pattern of up and down regulated genes, as compared to that of untreated T-cells, was performed by Clontech, as described in their manual. […]
# [7] = system: cloned resting human Th2 cells (clone 401); experiment: Cytokine secretion by ELISA, resting cloned Th2 cells; assay type: cell-based; conditions: 10^−8 M Glutamate, no antigen stimulation, versus untreated
# Protocol: The results are expressed as pg/ml IL-4. Note the clear induction of IL-4 secretion in the Glutamate-treated cells, absent in the non-activated cells.
# as §1, with “Technologies).” for “Technologies). Alloprimed PBMC were seeded at 0.4 cell/well on allogeneic specific feeder layer.”
# as §2
# [8] = system: GluR3 mRNA in normal human T-cells; experiment: GluR3 mRNA expression by RT-PCR; assay type: cell-based; conditions: Glutamate 10 mM, 24 hours
# Description: FIGS. 10A and 10B are ethidium bromide stained gels of RT-PCR amplified cDNA from two similar experiments.
# Total RNA was extracted from cultured T-cells using Trizol RNA isolation reagent (Molecular Research Center, Cincinnati, Ohio) based on the acid guanidinium thiocyanate-phenol-chloroform extraction method, according to manufacturer recommendations. […] The expression of the ribosomal protein S-14, derived from the same cell preparations, served as an internal control. Each reaction contained four oligonucleotides primers, two for GluR3 and two for the internal control S-14. PCR conditions were: cDNA equivalent to 50 ng RNA was amplified for 30 cycles, the annealing temperature was 60° C. and the final MgCl2 concentration was 2.5 mM. The Taq DNA polymerase used in this study was the BIO-X-ACT DNA polymerase (Bioline UK Ltd., London. UK). The PCR products were separated electrophoretically on a 1.5% agarose gel containing ethidium bromide, and visualized under UV light.
# GluR3—5′[…] 3′ (SEQ. ID NO: 8) and 5′ […] 3′ (SEQ ID NO: 9) corresponding to nucleotides 699-718 (sense) and 1312-1331 (antisense) respectively. The predicted size of the band is […].
# [9] = system: cloned human Th0 cells (clone 234); experiment: IFN-γ secretion by ELISA, activated (alloprimed) cloned Th0 cells; assay type: cell-based; conditions: 20 hours, 10^−8M Glutamate plus mismatched allopriming B cells, versus antigen stimulation alone
# Protocol: (§3) The results are expressed as pg/ml IFN-γ.
# as §1, §2
# [10] = system: human T-cell lukemia (Jurkat) cells; experiment: Bomapin expression in Jurkat cells; assay type: cell-based
# Description: Total RNA was extracted by using Trizol RNA isolation reagent (Molecular Research Center, Cincinnati, Ohio) based on the acid guanidinium thiocyanate-phenol-chloroform extraction method, according to manufacturer recommendations. RT-PCR was used to amplify the levels of endogenous Bomapin mRNA that may be present in the peripheral human T-cells and in the Jurkat cells (a human mature leukemic cell line that phenotypically resembles resting human T lymphocytes). The expression of the ribosomal protein S-14, derived from the same tissue preparations, served as an internal control. Each reaction contained four oligonucleotides primers, two for Bomapin and two for the internal control S-14. PCR conditions were: cDNA equivalent to 50 ng RNA was amplified for 30 cycles, the annealing temperature was 60° C. and the final MgCl2 concentration was 2.5 mM. The Taq DNA polymerase used in this study was the BIO-X-ACT DNA polymerase (Bioline UK Ltd., London. UK). The PCR products were separated electrophoretically on a 1.5% agarose gel containing ethidium bromide, and visualized under UV light.
# [11] = system: cloned human Th1 cells (clone 305); experiment: IFN-γ secretion by ELISA, activated (alloprimed) cloned Th1 cells; assay type: cell-based; conditions: 20 hours, 10^−8M Glutamate plus mismatched allopriming B cells, versus antigen stimulation alone
# Protocol: as §3, §1, §2
# [12] = CNQX added to Glutamate during incubation
# [13] = PHA or mAb activated human peripheral lymphocytes
# [14] = 10^−8M Glutamate, 30 minutes, versus untreated (BG)
compound,measurement,setting,value
N#Cc1cc2[nH]c(=O)c(=O)[nH]c2cc1[N+](=O)[O-] [CNQX],Effect on Glutamate-mediated fibronectin binding,[1]; [12],strongly inhibits
same,Effect on Glutamate-mediated laminin binding,[1]; [12],strongly inhibits
same,Blocking of the glutamate effect on integrin-mediated T-cell adhesion to laminin and fibronectin,[1],blocked specifically
same,Glutamate-induced Bomapin transcripts in the presence of antagonist,[2]; T-cells treated with Glutamate in the presence of CNQX,absence of detectable Bomapin transcripts
N[C@@H](CCC(=O)O)C(=O)O [Glutamate],"IL-4 secretion (""forbidden"" cytokine)",[3],significant induction
same,"IL-10 secretion (""forbidden"" cytokine)",[3],significant induction
same,Ca++ influx and proliferation in activated lymphocytes,[4]; [13],induction of Ca^++ influx and proliferation
same,"Effect on unstimulated, resting lymphocytes",[4]; high levels (1 mM) of Glutamate,no effect
same,Migration towards the chemoattractant SDF-1 (number of migrating cells),[5],significantly augments
same,T-cell adhesion to fibronectin,[1]; [14],significant increase
same,T-cell adhesion to laminin,[1]; [14],significant increase
same,Differential pattern of gene expression versus untreated cells,[6],induced the over expression of mRNA encoding for several genes; also recorded: down-regulated the expression of others
same,IL-4 secretion,[7],strong release of IL-4
same,RT-PCR-amplified GluR3 cDNA transcripts,[8],absence of RT-PCR-amplified GluR3 Glutamate receptor cDNA transcripts
same,Bomapin mRNA level versus untreated cells,"[2]; Glutamate 10 nM, 72 hours, 30 PCR cycles, S-14 internal control",about 6 fold
same,IFN-γ secretion,[9],additional significant IFN-γ secretion
same,Bomapin expression,[10],induces expression
same,IFN-γ secretion,[11],additional significant IFN-γ secretion
"O=C(O)c1cc(=O)c2ccccc2[nH]1 [KYNA, reference compound]",Effect on Glutamate potentiation in activated lymphocytes,[4]; [13],inhibition of Glutamate potentiation
"NS(=O)(=O)c1cccc2c1c([N+](=O)[O-])cc1nc(O)c(O)nc12 [NBQX, reference compound]",Effect on Glutamate potentiation in activated lymphocytes,[4]; [13],inhibition of Glutamate potentiation
same,Blocking of the glutamate effect on integrin-mediated T-cell adhesion to laminin and fibronectin,[1],blocked specifically
